For this data set, the system named is mouse liver microsomes without NADPH, LC-MS/MS. Kind of data set: Enhancers of SMN2 Splice Variant Expression: Metabolic Stability in absence of NADPH Profiling. The conditions noted are these: at 1 µM; stronger effect = higher value. From the text: Spinal muscular atrophy (SMA) is caused by insufficient levels of the survival motor neuron protein SMN. The SMN locus on chromosome 5q13 contains two inverted copies of SMN called SMN1 and SMN2 which are 99% identical at the amino acid level. SMN1 is a fully functional protein and SMN2 skips exon 7 90% of the time. Skipping of exon 7 produces non-functional protein product. 10% of the SMN2 protein includes exon 7 and is fully functional. In the SMA disease state, mutations in the SMN1 locus are the cause of the disease state. Because only 10% of SMN2 is of the fully functional form, it is not sufficient to overcome the deficiency produced by the loss of the SMN1 product. A therapy that either increase the amount of SMN2 product made or to increase the inclusion of exon 7 has been proposed for the treatment of SMA. Mouse liver microsomes are generated from lysed mouse liver. Liver microsomes contain many drug metabolizing enzymes, including Cytochome P-450s and flavin-containing monooxygenases. Because drug metabolism is major way of drug clearance, this is an important result. NIH Chemical Genomics Center [NCGC] NIH Molecular Libraries Probe Production centers Network [MLPCN] MLPCN Grant: R03 MH084179-01 Assay Submitter (PI): Elliot Androphy
1uM of compound in incubated in mouse liver microsome; the reference compound is ketanserin. […] Samples are analyzed with LC-MS/MS.

Regarding `O=C(O)C1CCN(c2nc(-c3ccc(Br)cc3)cs2)CC1`, the percent remaining is 95%.

For the origin of these results see PubChem BioAssay AID504777 (National Center for Advancing Translational Sciences (NCATS), 2011).
